# Experimental data published in patent US7425557B2, “Inhibitors of glycogen synthase kinase 3” (Novartis Vaccines and Diagnostics, Inc., priority 1998, dated 2008).
# Biological target: human GSK3β (Homo sapiens, UniProt P49841)
# Assay: Screening for GSK3 inhibitory activity using a cell-free assay
# Format: biochemical
# Details: read-out: IC50 with respect to GSK3
# Method in brief: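 Radiometric cell-free assay with recombinant human GSK3β phosphorylating a biotinylated peptide substrate for 3 h. Reactions were stopped with 50 μM ATP/20 mM EDTA and captured on streptavidin plates. Incorporated radiolabel was counted by scintillation and plotted against compound concentration.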
# Chain of human GSK3β (P49841 whole entry): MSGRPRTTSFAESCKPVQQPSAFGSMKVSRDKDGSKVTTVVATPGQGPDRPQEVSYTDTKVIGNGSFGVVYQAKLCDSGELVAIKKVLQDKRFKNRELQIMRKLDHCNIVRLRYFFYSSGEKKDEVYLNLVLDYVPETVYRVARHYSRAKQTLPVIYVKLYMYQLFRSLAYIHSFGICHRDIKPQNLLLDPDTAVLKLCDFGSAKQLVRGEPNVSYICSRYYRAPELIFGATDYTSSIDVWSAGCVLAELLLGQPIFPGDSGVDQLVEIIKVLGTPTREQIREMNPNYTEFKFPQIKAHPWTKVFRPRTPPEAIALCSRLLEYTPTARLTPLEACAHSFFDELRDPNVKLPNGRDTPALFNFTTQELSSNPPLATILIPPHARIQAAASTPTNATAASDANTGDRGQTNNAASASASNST
row,SMILES,IC50 [µM]
1,"Nc1nc(NCCNc2ncc(N3CCOCC3)c(-c3ccc(Cl)cc3Cl)n2)ccc1[N+](=O)[O-] [{2-[(6-amino-5-nitro(2-pyridyl))amino]ethyl}[4-(2,4-dichlorophenyl)-5-morpholin-4-yl-pyrimidin-2-yl]amine]",≤ 1
2,COc1ccc(-c2nc(NCCNc3ccc([N+](=O)[O-])cn3)nc(-c3ccc([N+](=O)[O-])cc3)c2C(=O)O)cc1 [4-(4-methoxyphenyl)-2-({2-[(5-nitro(2-pyridyl))amino]ethyl}-amino)-6-(4-nitrophenyl)pyrimidine-5-carboxylic acid],≤ 10
3,NC(=O)c1ccc(-c2ccnc(NCCNc3ccc4ccccc4n3)n2)cc1 [4-(2-{[2-(2-quinolylamino)ethyl]amino}pyrimidin-4-yl)benzamide],≤ 1
4,NC(=O)c1ccc(-c2ccnc(NCc3cccc(Cl)c3)n2)cc1 [4-(2-{[(3-chlorophenyl)methyl]amino}pyrimidin-4-yl)benzamide],≤ 10
5,"CN1CCN(c2cnc(NCCNc3ccc([N+](=O)[O-])cn3)nc2-c2ccc(Cl)cc2Cl)CC1 [[4-(2,4-dichlorophenyl)-5-(4-methylpiperazinyl)pyrimidin-2-yl]{2-[(5-nitro(2-pyridyl))amino]ethyl}amine]",≤ 1
6,N#Cc1ccc(-c2nc(NCCNc3ccc([N+](=O)[O-])cn3)ncc2C(=O)OCCO)cc1 [2-hydroxyethyl 4-(4-cyanophenyl)-2-({2-[(5-nitro(2-pyridyl))-amino]ethyl}amino)pyrimidine-5-carboxylate],≤ 1
7,CCOC(=O)c1cnc(NCCc2ccccn2)nc1-c1ccc(OC)cc1 [ethyl 4-(4-methoxyphenyl)-2-[(2-(2-pyridyl)ethyl)amino]pyrimidine-5-carboxylate],≤ 10
8,NC(=O)c1ccc(-c2ccnc(NCc3ccc(-c4cccc(N)c4)cc3)n2)cc1 [4-[2-({[4-(3-aminophenyl)phenyl]methyl}amino)pyrimidin-4-yl]benzamide],≤ 10
9,COc1ccc(OCCCNc2nccc(-c3ccc(C(N)=O)cc3)n2)cc1 [4-(2-{[3-(4-methoxyphenoxy)propyl]-amino}pyrimidin-4-yl)benzamide],≤ 1
10,CCOC(=O)c1cnc(NCCNc2ccc(N)cn2)nc1-c1ccc(C#N)cc1 [ethyl 2-({2-[(5-amino(2-pyridyl))amino]ethyl}amino)-4-(4-cyanophenyl)pyrimidine-5-carboxylate],≤ 10
11,O=C(NCc1cccc([N+](=O)[O-])c1)c1ccc(-c2ccnc(NCCNc3ccc([N+](=O)[O-])cn3)n2)cc1 [{4-[2-({2-[(5-nitro(2-pyridyl))amino]ethyl}amino)pyrimidin-4-yl]phenyl}-N-[(3-nitrophenyl)-methyl]carboxamide],≤ 10
12,CCc1cnc(NCCNc2ccccn2)nc1-c1ccccc1,≤ 10
13,O=C(NCc1cccc(Br)c1)c1ccc(-c2ccnc(NCCNc3ncccn3)n2)cc1 [N-[(3-bromophenyl)methyl][4-(2-{[2-(pyrimidin-2-ylamino)ethyl]amino}pyrimidin-4-yl)phenyl]carboxamide],≤ 1
14,"NC(=O)c1ccc(-c2ccnc(NCC(c3ccccc3)c3ccccc3)n2)cc1 [4-{2-[(2,2-diphenylethyl)amino]pyrimidin-4-yl}-benzamide]",≤ 10
15,"Nc1nc(NCCNc2ncc(C(=O)O)c(-c3ccc(Cl)cc3Cl)n2)ccc1[N+](=O)[O-] [2-({2-[(6-amino-5-nitro(2-pyridyl))amino]ethyl}amino)-4-(2,4-dichlorophenyl)pyrimidine-5-carboxylic acid]",≤ 1
16,O=C(NCc1cccc(F)c1)c1ccc(-c2ccnc(NCCNc3ccc([N+](=O)[O-])cn3)n2)cc1 [N-[(3-fluorophenyl)methyl]{4-[2-({2-[(5-nitro(2-pyridyl))amino]ethyl}amino)pyrimidin-4-yl]-phenyl}carboxamide],≤ 10
17,N#Cc1ccc(NCCNc2ccc([N+](=O)[O-])c(NCc3ccccc3)n2)nc1 [6-{[2-({5-nitro-6-[benzylamino]-2-pyridyl}amino)ethyl]amino}pyridine-3-carbonitrile],≤ 10
18,O=C(NCc1cccc(Br)c1)c1ccc(-c2ccnc(NCCNc3ccc(C(F)(F)F)cn3)n2)cc1 [N-[(3-bromophenyl)methyl](4-{2-[(2-{[5-(trifluoromethyl)(2-pyridyl)]amino}ethyl)amino]pyrimidin-4-yl}phenyl)-carboxamide],≤ 10
19,NC(=O)c1ccc(-c2ccnc(NCCNc3ccc(C(N)=S)cn3)n2)cc1 [4-{2-[(2-{[5-(aminothioxomethyl)-2-pyridyl]amino}ethyl)amino]pyrimidin-4-yl}benzamide],≤ 1
20,N#Cc1ccc(-c2nc(NCCNc3ccc([N+](=O)[O-])cn3)ncc2C(=O)NCCN)cc1 [N-(2-aminoethyl)[4-(4-cyanophenyl)-2-({2-[(5-nitro(2-pyridyl))amino]ethyl}amino)pyrimidin-5-yl]carboxamide],≤ 1

row,SMILES,IC50 [µM]
1,"CC(=O)Nc1cnc(NCCNc2ccc([N+](=O)[O-])cn2)nc1-c1ccc(Cl)cc1Cl [N-[4-(2,4-dichlorophenyl)-2-({2-[(5-nitro(2-pyridyl))amino]ethyl}amino)pyrimidin-5-yl]-acetamide]",≤ 1
2,"CCOC(=O)c1cnc(NCCNc2ccc([N+](=O)[O-])cn2)nc1-c1ccc(OC)c(OC)c1 [ethyl 4-(3,4-dimethoxyphenyl)-2-({2-[(5-nitro(2-pyridyl))amino]ethyl}amino)pyrimidine-5-carboxylate]",≤ 10
3,O=C(NCCc1ccccc1)c1ccc(-c2ccnc(NCCNc3ccc([N+](=O)[O-])cn3)n2)cc1 [{4-[2-({2-[(5-nitro(2-pyridyl))amino]ethyl}amino)-pyrimidin-4-yl]phenyl}-N-(2-phenylethyl)carboxamide],≤ 10
4,CCOC(=O)c1cnc(NCCc2ccccn2)nc1-c1ccc(C#N)cc1 [ethyl 4-(4-cyanophenyl)-2-[(2-(2-pyridyl)ethyl)amino]-pyrimidine-5-carboxylate],≤ 10
5,N#Cc1ccc(-c2nc(NCCNc3ccc([N+](=O)[O-])cn3)ncc2C(=O)N2CCOCC2)cc1 [4-[5-(morpholin-4-ylcarbonyl)-2-({2-[(5-nitro(2-pyridyl))amino]ethyl}-amino)pyrimidin-4-yl]benzenecarbonitrile],≤ 1
6,"Nc1nc(NCCNc2ncc(CO)c(-c3ccc(Cl)cc3Cl)n2)ccc1[N+](=O)[O-] [[2-({2-[(6-amino-5-nitro(2-pyridyl))amino]ethyl}amino)-4-(2,4-dichlorophenyl)pyrimidin-5-yl]methan-1-ol]",≤ 1
7,Nc1nc(NCCNc2ncc(-c3ncc[nH]3)c(-c3ccccc3Cl)n2)ccc1[N+](=O)[O-] [{2-[(6-amino-5-nitro(2-pyridyl))amino]ethyl}[4-(2-chlorophenyl)-5-imidazol-2-ylpyrimidin-2-yl]amine],≤ 1
8,N#Cc1ccc(-c2nc(NCCNc3ccc([N+](=O)[O-])cn3)ncc2C(=O)NCc2ccccc2)cc1 [[4-(4-cyanophenyl)-2-({2-[(5-nitro(2-pyridyl))amino]ethyl}amino)pyrimidin-5-yl]-N-benzylcarboxamide],≤ 1
9,Cc1c[nH]c(-c2cnc(NCCNc3ccc(C#N)cn3)nc2-c2ccc(Br)cc2Cl)n1 [6-[(2-{[4-(4-bromo-2-chlorophenyl)-5-(4-methylimidazol-2-yl)pyrimidin-2-yl]amino}ethyl)amino]pyridine-3-carbonitrile],≤ 1
10,"O=C(NCc1cc(Cl)cc(Cl)c1)c1ccc(-c2ccnc(NCCNc3ccc([N+](=O)[O-])cn3)n2)cc1 [N-[(3,5-dichlorophenyl)methyl]{4-[2-({2-[(5-nitro(2-pyridyl))amino]ethyl}amino)pyrimidin-4-yl]phenyl}carboxamide]",≤ 10
11,N#Cc1ccc(-c2nc(NCCNc3ccc([N+](=O)[O-])cn3)ncc2C(N)=O)cc1 [4-(4-cyanophenyl)-2-({2-[(5-nitro(2-pyridyl))-amino]ethyl}amino)pyrimidine-5-carboxamide],≤ 1
12,NS(=O)(=O)c1ccc(-c2ccnc(NCCNc3ccc([N+](=O)[O-])cn3)n2)cc1 [4-[2-({2-[(5-nitro-2-pyridyl)amino]ethyl}amino)pyrimidin-4-yl]benzenesulfonamide],≤ 10
13,"CCOC(=O)c1cnc(NCCNc2ccc([N+](=O)[O-])cn2)nc1-c1cc(C(F)(F)F)cc(C(F)(F)F)c1 [ethyl 4-[3,5-bis(trifluoromethyl)-phenyl]-2-({2-[(5-nitro(2-pyridyl))amino]ethyl}amino)pyrimidine-5-carboxylate]",≤ 10
14,"Cc1nc(C)c(-c2ccnc(NCCNc3ccc([N+](=O)[O-])cn3)n2)s1 [[4-(2,4-dimethyl(1,3-thiazol-5-yl))pyrimidin-2-yl]{2-[(5-nitro(2-pyridyl))-amino]ethyl}amine]",≤ 10
15,"CCc1cnc(NCCNc2ccc([N+](=O)[O-])cn2)nc1-c1ccc(Cl)cc1Cl [[4-(2,4-dichlorophenyl)-5-ethylpyrimidin-2-yl]{2-[(5-nitro(2-pyridyl))amino]ethyl}amine]",≤ 1
16,N#Cc1ccc(NCCNc2ncc(-c3ncc[nH]3)c(-c3ccc(Br)cc3Cl)n2)nc1 [6-[(2-{[4-(4-bromo-2-chlorophenyl)-5-imidazol-2-ylpyrimidin-2-yl]amino}ethyl)amino]pyridine-3-carbonitrile],≤ 1
17,COc1ccccc1CCNc1nccc(-c2ccc(C(N)=O)cc2)n1 [4-(2-{[2-(2-methoxyphenyl)-ethyl]amino}pyrimidin-4-yl)benzamide],≤ 1
18,O=[N+]([O-])c1ccc(NCCNc2nccc(-c3cnccn3)n2)nc1 [{2-[(5-nitro(2-pyridyl))amino]ethyl}(4-pyrazin-2-ylpyrimidin-2-yl)amine],≤ 10
19,"O=C(NCc1ccc(Cl)c(Cl)c1)c1ccc(-c2ccnc(NCCNc3ccc([N+](=O)[O-])cn3)n2)cc1 [N-[(3,4-dichlorophenyl)methyl]{4-[2-({2-[(5-nitro(2-pyridyl))amino]ethyl}amino)pyrimidin-4-yl]phenyl}carboxamide]",≤ 10
20,COc1cccc(CNc2nccc(-c3ccc(C(N)=O)cc3)n2)c1 [4-(2-{[(3-methoxyphenyl)methyl]-amino}pyrimidin-4-yl)benzamide],≤ 10
